Data as given in patent US8916686B2, “TDF-related compounds and analogs thereof” (Thrasos Innovation, Inc., priority 2004, dated 2014).

Experiments:
[1] = test system: mouse model of nephrotoxic serum nephritis; assay: Nephrotoxic serum nephritis (NTN) model of chronic renal injury; format: in vivo; details: oral 5 mg/kg/24 hr
Experimental: Attenuation of renal fibrosis progression by Thrasos compound in a mouse model of nephrotoxic serum nephritis. FIG. 8A: Kidney section of vehicle-treated animal, FIG. 8B: Kidney section of animal received oral administration of compound SEQ ID NO 45 (5 mg/kg/24 hr).
Nephrotoxic serum nephritis (NTN) is a model of progressive chronic renal injury. Mice given injections of nephrotoxic serum (NTS) develop glomerulonephritis, leading to tubulointerstitial disease associated with EMT, and ultimately renal fibrosis, over a period of about six weeks. […] In these studies, BMP-7 was able to restore expression of E-cadherin proteins in previously damaged tubules. […] For a review of the above see, Zeisberg et al., Nature Medicine, 9; 7 pp 964-968, (2003) and Kalluri et al., J. Clin Investigation 112:1776-1784 (2003).

[2] = test system: HK-2 cells; assay: Apoptosis detection using Annexin V immunostaining after cisplatin; format: cell-based, human; details: 10 uM cisplatin; 500 uM compound prophylactically or therapeutically
Experimental: Apoptosis and cell viability are quantified using AnnexinV-FITC and propidium iodide staining of HK-2 cells following cisplatin treatment Immortalized PTEC-derived HK-2 cells (ATCC number CRL-2190) are cultured in serum-free keratinocyte medium (GIBCO number 17005-042) supplemented with EGF and BPE for 48 hours (Ryan et al. 1994 Kidney Int 45:48-57). Medium is aspirated and cells are washed with PBS and incubated in the dark for 15 min at room temperature with 10 μl of media binding agent and 1.25 μl of FITC conjugated AnnexinV. Propidium iodide (10 μl) is added, and samples are analyzed immediately. Quantification of Annexin V-FITC and propidium iodide signals is performed by fluorescence microscopy (Axiovert 135; Carl Zeiss). Phase contrast images are observed using transmitted light. Apoptotic cells show cytoplasmic staining and viable cells remain unstained (FIG. 14A-FIG. 14D).

[3] = test system: rat after ligation of the coronary artery; assay: LAD occlusion model of myocardial injury (ischemia/reperfusion); format: in vivo
Experimental: The efficacy of compound SEQ ID #45 in ameliorating the effects of myocardial ischemia was investigated in the rat after ligation of the coronary artery. […] unmanipulated rats, sorted into two large groups by initial body weight (>300 g pre-surgery) were evaluated. Fourteen rats underwent surgery on week, 12 rats underwent surgery on week 2 and rats were sorted into 3 treatment groups: Group 1, PBS; Group 2, positive control TDF-1; Group 3, test article SEQ ID #45 (see Table X).
Three days prior to surgery, a serum sample was collected from the tail vein of each rat (pre-bleed). On the day of surgery, each rat was administered compound intravenously 2 hr prior to surgery. Surgery was performed sequentially after intubation and ventilation with 0.5% isofluorane anesthetic. Lead II ECG was monitored throughout the surgery. A thoracotomy was performed and the main left coronary artery was occluded for 20 min using a snare technique (FIG. 16). Successful occlusion of the artery was confirmed by ST elevation in lead II ECG within the first 5 minutes of ligation, and by frequent ventricular arrhythmia after 10 minutes of ligation. The snare was released to restore blood flow. The original suture loop was left in place for subsequent re-occlusion on Day 7. After initiation of reperfusion, the chest cavity was closed with 2 layers of suture. Rats were weaned from the ventilator and observed until fully conscious and mobile. Antibiotic (QD) and analgesic (Q8D) were provided. Additional serum samples were collected 6, 24, 72 and 120 hours post occlusion. Additional compound, positive control or vehicle treatments were delivered by intravenous injection in the tail vein at 24, 72 and 120 hours post occlusion.
On Day 7, each rat was anesthetized (ketamine:xyline), the chest cavity re-opened and a terminal blood sample (1 ml) was withdrawn from the abdominal vein. Gross pathology (i.e. inflammation) was noted and graded on a 4 point inflammation scale: 0=no inflammation, 1=slight, 2=moderate, 3=severe and 4=complete pericarditis. The left coronary artery was then re-occluded using the existing stitch and a concentrated solution of Evans Blue dye in saline (20 mg/ml; 0.5 ml/rat) was injected into the heart apex to stain the non-ischemic cardiac tissue blue. The heart was then arrested by injection of a saturated solution of potassium chloride into the right ventricle. The heart was then excised, wrapped in cellophane and stored at −20° C. for 1.5 hour. The cold heart was cut into 10 cross-sectional slices (2 mm/slice) and each section was numbered and incubated separately in triphenyltetrazolium chloride (1% TTC in PBS) for 10 minutes at 37° C. prior to fixing in 4% formaldehyde. Subsequently, each slice was photographed. For each slice, the “area at risk (AR)” and the “area occupied by necrosis (AN)” were measured by morphometry. The ratio of AN to AR is a measure of the degree of damage resulting from the occlusion (FIG. 17A-FIG. 17B).

[4] = test system: renal toxic effects of cisplatin in the rat; assay: Cisplatin renal toxicity in male Sprague-Dawley rat; format: in vivo
Experimental: Compound (SEQ ID #45) was tested in male Sprague-Dawley rats (250 gm to 300 gm) to establish the dose range and the extent to which the compound is able to prophylactically and therapeutically ameliorate the renal toxic effects of cisplatin. The cisplatin dosing level was the chemotherapeutic level used in humans, 40 ug/kg bw. The end points were the level of creatinine in serum and kidney histology. The positive control used was 250 ug/kg bw of the mature form of recombinant human BMP-7 (rhmBMP-7).
A stock solution (70 mg/ml) of the test article (SEQ ID #45) was made by dissolving it in 20 mM Acetate (ph 4.2). The stock solution was further diluted into phosphate buffered saline (PBS, pH 7.2) plus 5% Mannitol to compound concentrations of 14 mg/ml (28 mg/kg dose), 1.4 mg/ml (2.8 mg/kg dose) and 0.14 mg/ml (0.28 mg/kg dose).
Cisplatin was administered via i.p. injection (40 ug/kg bw) at time zero. Administration of therapeutic dosing of the compound, the rhmBMP-7 positive control and vehicle negative control were by slow bolus i.v. injection through the tail vein at five time points: 2 hours before the administration of cisplatin, then at 24 hours, 48 hours, 72 hours and 96 hours post cisplatin administration. Blood samples were collected through the tail vein at time points of 0, 24, 48, 72 and 96 hours. At seven day sample was collected by exsanguination at sacrifice. Serum was prepared from the blood samples and analyzed for creatinine concentration. The serum concentration of creatinine, a byproduct of muscle activity that is released into the blood stream and cleared through the kidneys, is a marker of kidney function that tends to rise when kidney function becomes severely compromised (FIG. 18).
Upon sacrifice at seven days, the kidneys were harvested, fixed in formalin and imbedded in paraffin. They were then sagitally sectioned and stained in H&E stain. Kidney sections were also stained with anti-bodies against proliferating cell nuclear antigen (PCNA) (to identify sites of cell regeneration), macrophages, ICAM-1, and smooth muscle. Also collected at sacrifice were tissues at and around the injection site (FIG. 19A-FIG. 19B).

CYFDDSSNVLCKKYRS [SEQ ID NO 45]
renal fibrosis [1]: significantly attenuated progression of renal fibrosis | cisplatin-induced apoptosis [2]: inhibits cisplatin-induced apoptosis | degree of cardiac inflammation ([3]; LAD occlusion model): reduces the degree of cardiac inflammation | necrotic area to area at risk ratio (IA/AR) ([3]; LAD occlusion model): reduces the necrotic area to area at risk ratio (IA/AR) | reduction in inflammation score as compared to PBS-treated animals ([3]; day 7, 10 mg/kg i.v., 4 point inflammation scale): 78% | reduction in AN/AR ratio as compared to PBS-treated animals ([3]; day 7, compound 10 mg/kg i.v., rhmBMP-7 160 μg/kg i.v.): 84% | inflammation and cytotoxic effects toward cardiomyocytes following myocardial infarction ([3]; myocardial ischemia and reperfusion injury): ameliorate inflammation and cytotoxic effects toward cardiomyocytes | cisplatin-induced inflammation of the kidney cortex ([4]; 2.8 mg/kg bw): significantly reduced | ICAM-1 release ([4]; 2.8 mg/kg bw, kidney sections): reduced | degree of cellular regeneration (PCNA) ([4]; 2.8 mg/kg bw, kidney sections): increased | macrophage infiltration ([4]; 2.8 mg/kg bw, kidney sections): reduced | smooth muscle loss ([4]; 2.8 mg/kg bw, kidney sections): reduced | cisplatin-induced level of creatinine in serum ([4]; 0.28, 2.8 and 28 mg/kg bw i.v.): reduces the cisplatin-induced level of creatinine in serum | reduction of serum creatinine rise following cisplatin, versus positive control ([4]; highest dose (28 mg/kg), positive control rhmBMP-7): more efficacious than the positive control | nephrotoxic effects of cisplatin exposure ([4]; rat, in vivo): can reduce or ameliorate the nephrotoxic effects of cisplatin exposure
